Results published in patent publication US11331290B2, “Niclosamide for the treatment of cancer metastasis” (Max-Delbrück-Centrum für Molekulare Medizin in der …, priority 2011, dated 2022).

Experiments:
Format in all cases: cell-based, human
[1] = system: SW620, LS174T, SW480 and DLD-1 cells; assay: Anchorage-dependent cell proliferation (MTT); conditions: all four cell lines, 1 μM daily
Procedure: For cell proliferation determination of HCT116, SW620, LS174T, SW480 and DLD-1 cells 2×10^3 cells were seeded in 96-well-plates (for each day one plate) and were given 24 hours to attach to the bottom of the well. Cells were from then on treated daily with 1 μM niclosamide or the respective amount of DMSO. For determination of viable cells 3-(4,5-dimethyl-2-thiazol)-2,5-diphenyl-2H-tetrazolium bromide (MTT; Sigma) was added to a final concentration of 0.5 mg per mL and incubated for 3 hours at 37° C. and 5% CO2 in a humidified incubator. […] Crystallized MTT was resolved by 10% SDS in 10 mM HCl and the absorption was measured at 560 nm. […] The average MTT metabolisation was determined of two independent experiments each performed in triplicate.
(A) S100A4 expression under niclosamide treatment. […] S100A4 expression was analyzed with qRT-PCR and immunoblot. […] Migration rates of cells treated with 1 μM niclosamide for 24 hours were determined in a Boyden chamber assay values were normalized to solvent-treated SW620 cells. […] Invaded cells in the lower chamber were counted and normalized to solvent-treated SW620 cells. Differences in solvent vs. niclosamide-treated cells were analyzed by Student's t test. […] The amount of viable cells per well was determined by MTT assay. […] (G) Quantification of colonies formed. Number of colonies (of more than 4 cells) was counted and normalized to solvent-treated SW620 cells. […]

HAB-68mut cells = assay: Boyden chamber transwell migration assay; conditions: 1 μM, 24 h
Procedure: (§1) HCT116, SW620, LS174T, SW480 and DLD-1 cells were used in cell migration and invasion analysis performed with Boyden chamber assay. 400 μL containing 2.5×10^5 cells were seeded into each transwell chamber with filter membranes of 12.0 μm pore size (Millipore, Schwalbach, Germany). For invasion filter membranes were coated with 50 μL Matrigel (diluted 1:3 in RPMI-1640; BD Biosciences) 10 minutes before cells were seeded. Fresh medium (600 μL) were added to the bottom chamber and cells were allowed to attach to the insets for 15 hours. Both chambers were treated with 1 μM niclosamide or the respective amount of DMSO and incubated at 37° C. and 5% CO2 in a humidified incubator for 24 hours. Afterwards insets were removed and cells that had migrated through the membrane to the lower chamber were trypsinized and counted in a Neubauer chamber (LO-Laboroptik, Bad Homburg, Germany). Each well was counted ten times. Each migration or invasion experiment was performed in duplicate. The average number of migrated or invaded cells was determined for at least three independent experiments.
(§2) For WNT pathway analysis the following cells were applied: HCT116 cells (heterozygous for gain-of-function-mutated CTNNB1; wt/mut), HAB-68mut cells (deletion mutant of HCT116, expressing only gain-of-function-mutated CTNNB1: −/mut) and HAB-92 wt cells (deletion mutant of HCT116, expressing only wild-type CTNNB1: wt/−). (A) CTNNB1 genotype dependent effect of niclosamide on LEF/TCF transcription factor reporter gene expression. Cells were treated with 1 μM niclosamide for 24 hours. Reporter gene expression was determined by luciferase activity measurement. For each condition and cell line TOPflash expression was normalized to FOPflash expression. (B) CTNNB1 genotype dependent effect of niclosamide on S100A4 expression. Cells were treated with 1 μM niclosamide for 24 hours. S100A4 expression was analyzed by qRT-PCR and immunoblot. (C) CTNNB1 genotype dependent effect of niclosamide on migration rates. Cells were treated with 1 μM niclosamide for 24 hours and cell migration was determined by Boyden chamber assay. Data represents mean±SE of at least three independent experiments. Differences were analyzed by Student's t test (n.s.; not statistically significant). (D) Nuclear localization of CTNNB1 under niclosamide treatment. Nuclear extracts of HCT116 cells treated with the indicated concentrations of niclosamide for 18 hours were analyzed by immunoblot. (E) Effect of niclosamide on CTNNB1/TCF complex. Nuclear extracts of HCT116 cells treated with the indicated concentrations of niclosamide for 18 hours were analyzed by EMSA for the TCF-binding site of the S100A4 promoter. Supershift was performed by addition of a monoclonal anti-CTNNB1 antibody. […]

HAB-92 wt cells = assay: Boyden chamber transwell migration assay; conditions: 1 μM, 24 h, statistically not significant
Procedure: as §1, §2

Question: What does the source list for O=C(Nc1ccc([N+](=O)[O-])cc1Cl)c1cc(Cl)ccc1O [niclosamide, 2′,5-dichloro-4′-nitrosalicylanilide]?
Answer: anchorage-dependent cell proliferation [1]: inhibited; migration rate, mean difference control vs niclosamide (HAB-68mut cells): 0.91; migration rate, mean (relative to HCT116 control) (HAB-68mut cells; control 1.30): 0.39; migration rate, mean (relative to HCT116 control) (HAB-92 wt cells; control 0.36): 0.32; migration rate, mean difference control vs niclosamide (HAB-92 wt cells): 0.04
